Experiment [1] has as its system S. aureus ATCC 25923. It counts as cell-based, Staphylococcus aureus. As to conditions: S. aureus ATCC 25923; * indicates resistant (CLSI, 2020). The protocol:
(§1) The MICs of Myr-36PW in vitro were measured through microdilution in accordance with the Clinical and Laboratory Standards Institute (CLSI, [2020]). The bacterial cells were cultured for 12 h at 37°C in the appropriate medium and then diluted to 1 × 10^6 CFU/mL. Equal volumes (100 μL) of bacterial cell suspension and two-fold serially diluted different concentrations peptides (0.0039–256 μg/mL) were added to each well of the sterile 96-well plate. The samples were incubated for 18 h at 37°C. After incubation, the MICs of the peptides were determined by evaluating the growth based on the OD600 of the cultures.

Experiment [2] has as its system P. aeruginosa GIM 1.551. Kind of experiment: Subcutaneous abscess model. As to conditions: injected 20 μL, 1 μg/μL, once a day for 3 days. The class given is in vivo, BALB/c mice. The protocol: A subcutaneous abscess model in vivo was established as previously reported (Zhao et al., [2019]). The mouse dorsal region with 3.0 cm diameter was treated with hair pusher. A total of 120 mice were randomly divided into two experimental models, one was challenged with S. aureus ATCC 25923 (2.5 × 10^8 CFU/mL, 60 μL), and the other was challenged with P. aeruginosa GIM 1.551 (3.0 × 10^8 CFU/mL, 60 μL). In the S. aureus ATCC 25923 model, 60 mice were divided into six groups of 10 members. The mice with no infection and treatment was used as a blank control, those directly injected with PBS (20 μL) as the negative control group, those injected with benzylpenicillin potassium (20 μL, 1 μg/μL) as the positive control group, and the remaining three groups as the treatment groups injected with Myr-36PW (20 μL, 1 μg/μL), PMAP-36PW (20 μL, 1 μg/μL), and PMAP-36 (20 μL, 1 μg/μL). The procedure in P. aeruginosa GIM 1.551 model is the same as that in S. aureus ATCC 25923 model, except for the use of ampicillin sodium as a positive control. Treatment once a day for 3 days was initiated when the mice developed prominent pustules on their backs. A day after the treatment, the size of the abscess was observed, and its tissues were excised, homogenized, and serially diluted. Bacteria CFU counts were calculated.
Figure 10 Treatment efficacy of subcutaneous abscess by Myr-36PW in vivo. Mice were injected with S. aureus ATCC 25923 or P. aeruginosa GIM 1.551 to develop a subcutaneous abscess before treatment. (A) Changes in the abscess area of mice after 3 days treatment. (B,C) Quantitative analysis of bacterial CFU in abscess area that received 3 days treatment under various experimental conditions. The number of CFU in each treatment group was normalized by using the CFU of the experimental group divided by the CFU of the PBS group (100%). BP is benzylpenicillin potassium, AS is ampicillin sodium. Data represent the mean ± SD of five individual experiments. *P < 0.05 and **P < 0.01, compared with PBS. ^#P < 0.05 and ^##P < 0.01, compared with PMAP-36PW.

Experiment [3] deals with P. aeruginosa GIM 1.551. Kind of experiment: Pneumonia (lung infection) model. It counts as in vivo, BALB/c mice. The settings on record: intranasal 40 μL, 1 μg/μL, once a day for 3 days. The protocol:
A pneumonia model in vivo was established as previously reported, with minor modification (Cortés et al., [2002]; Aoki et al., [2009]; Shi et al., [2018]). A total of 120 mice were randomly divided into two experimental models, one was intranasal inoculation of S. aureus ATCC 25923 (8.3 × 10^9 CFU/mL, 50 μL), and the other was intranasal inoculation of P. aeruginosa GIM 1.551 (4.5 × 10^10 CFU/mL, 50 μL). In the S. aureus ATCC 25923 model, 60 mice were divided into the following six groups of 10 mice each: no infection and treatment was used as a blank control, those with intranasal administration of PBS (40 μL) as the negative control group, those administered with benzylpenicillin potassium (40 μL, 1 μg/μL) as the positive control group, and the remaining three corresponded to Myr-36PW (40 μL, 1 μg/μL), PMAP-36PW (40 μL, 1 μg/μL), and PMAP-36 groups (40 μL, 1 μg/μL). The procedure for P. aeruginosa GIM 1.551 model is the same as for S. aureus ATCC 25923 model, except for the use of ampicillin sodium as the positive control. After 4 h post-inoculation, treatment was initiated, once a day for 3 days. The mice were sacrificed 24 h after the treatment. Changes in the appearance of lung tissues were observed, and lung tissues were removed aseptically from the mice. Half of the removed lung tissues were gently fixed in buffered formaldehyde solution for histopathological assessment by hematoxylin and eosin (H&E) staining. Pathological changes were scored to provide individual therapeutic status as described previously (Lei et al., [2018]). The remaining lung tissues were added with 1 mL of PBS, homogenized, and serially diluted. Bacterial CFU counts were determined.
Figure 8 Therapeutic effect for pneumonia by Myr-36PW in vivo. Mice were injected with S. aureus ATCC 25923 or P. aeruginosa GIM 1.551 to form pneumonia, and lungs (n = 5) in each group were collected on day 4 after intranasal bacterial inoculation. (A) Morphological changes of lung tissues. (B) Representative histopathological images of processed lung section with hematoxylin and eosin (H&E) staining. Images are presented at a magnification of 20×. a: inflammatory cell infiltration. b: the alveolar wall is thickened. c: alveolar wall congestion or alveolar hemorrhage. (C,D) Pathological scores of the lung sections. Scoring standard: 1 indicated no pathology, 2 indicated local pulmonary congestion and inflammatory cell infiltration, 3 indicated pulmonary congestion and a large number of inflammatory cell infiltration, affecting <20% of the section, 4 indicated pulmonary congestion and a large number of inflammatory cell infiltration, affecting 20–50% of the section, and 5 indicated pulmonary congestion and a large number of inflammatory cell infiltration, affecting >50% of the section. (E,F) Bacterial CFU in lung homogenate. BP is benzylpenicillin potassium, AS is ampicillin sodium. Data represent the mean ± SD of five individual experiments.

Experiment [4] has as its system S. typhimurium SL 1344. It counts as cell-based, Salmonella typhimurium. As to conditions: S. typhimurium SL 1344; * indicates resistant (CLSI, 2020). The protocol:
as §1

The test system of experiment [5] is L. monocytogenes CICC 21634. It counts as cell-based, Listeria monocytogenes. The settings on record: L. monocytogenes CICC 21634; * indicates resistant (CLSI, 2020). The protocol: as §1
Experiment [6] relates to P. aeruginosa GIM 1.551. Kind of experiment: Wound infection model. The class given is in vivo, BALB/c mice. As to conditions: 20 μL, 1 μg/μL, once a day for 7 days. The protocol:
Sixty mice with ten mice in each group were used in the experiment. Infection and treatment were performed as previously described (Hong et al., [2017]). The mouse dorsal region with a diameter of 3.0 cm was treated with hair pusher, and a full-thickness 2.0 cm diameter wound was created by excising the skin and infected by direct seeding with P. aeruginosa GIM 1.551 (1 × 10^8 CFU/mL, 50 μL). The wound was then covered with sterile gauze to prevent cross contamination. Treatment was initiated at 24 h after bacterial inoculation. The mice with no infection and treatment was used as a blank control, those provided with PBS (20 μL) as the negative control group, those administered with ampicillin sodium (20 μL, 1 μg/μL) as the positive control group, and the remaining were those treated with the three peptides (20 μL, 1 μg/μL) once a day for 7 days as the treatment groups. The mice were sacrificed after the 7 day treatment. Changes in the wound were observed, and the infected sections of skin were aseptically contained, homogenized, and serially diluted. Bacterial CFU counts were obtained.
Figure 11 Treatment value of wound by Myr-36PW in vivo. A 2 cm wound was cut with a knife and directly injected with P. aeruginosa GIM 1.551. (A) Wound changes of mice after 7 days treatment. (B) Bacterial CFU in the wound area treated for 7 days under different experimental conditions. AS is ampicillin sodium. Data represent the mean Log (CFU) ± SD of five individual experiments. *P < 0.05 and **P < 0.01, compared with PBS. ^#P < 0.05, compared with PMAP-36PW.

Experiment [7] deals with P. aeruginosa GIM 1.551. The class given is cell-based, Pseudomonas aeruginosa. The settings on record: P. aeruginosa GIM 1.551; * indicates resistant (CLSI, 2020). The protocol:
as §1

Experiment [8] relates to L. monocytogenes CICC 21634. Kind of experiment: Inhibition zone assay (disk diffusion). The class given is cell-based, Listeria monocytogenes. On the set-up: key: +, means the peptide has antibacterial activity. As to conditions: disk 10 μg peptide, 18 h at 37°C, * P < 0.05, ** P < 0.01 vs PMAP-36PW. The protocol:
(§2) The inhibition zone assay was performed through the disk diffusion to evaluate the antimicrobial activity of Myr-36PW in vitro (Dunne et al., [2017]). The four above-mentioned bacterial strains were used as experimental strains, with L. monocytogenes CICC 21634 cultured in BHI medium, and P. aeruginosa GIM 1.551 cultured in TSB medium. The bacterial cells were cultured for 12 h at 37°C in the appropriate medium, and the bacterial cell suspension was spread on LB agar. The disks containing 10 μg of peptides (1 μg/μL) were attached to the solid medium and incubated at 37°C for 18 h. Finally the diameter of the inhibition zone was measured.

The test system of experiment [9] is S. typhimurium SL 1344. Kind of experiment: Inhibition zone assay (disk diffusion). The class given is cell-based, Salmonella typhimurium. On the set-up: key: +, means the peptide has antibacterial activity. The settings on record: disk 10 μg peptide, 18 h at 37°C, * P < 0.05, ** P < 0.01 vs PMAP-36PW. The protocol:
as §2
For orientation: A growth-free zone around the sample is the usual read-out of agar diffusion tests.

Experiment [10] has as its system S. aureus ATCC 25923. Kind of experiment: Inhibition zone assay (disk diffusion). The settings on record: disk 10 μg peptide, 18 h at 37°C, * P < 0.05, ** P < 0.01 vs PMAP-36PW. The class given is cell-based, Staphylococcus aureus. On the set-up: key: +, means the peptide has antibacterial activity. The protocol: as §2
Experiment [11] deals with P. aeruginosa GIM 1.551. Kind of experiment: Inhibition zone assay (disk diffusion). On the set-up: key: +, means the peptide has antibacterial activity. The settings on record: disk 10 μg peptide, 18 h at 37°C, * P < 0.05, ** P < 0.01 vs PMAP-36PW. It counts as cell-based, Pseudomonas aeruginosa. The protocol:
as §2

“Also recorded” adds a separate entry of the source.

The values that follow come from paper PMC7481357, “N-terminal Myristoylation Enhanced the Antimicrobial Activity of Antimicrobial Peptide PMAP-36PW” (Frontiers in Cellular and Infection Microbiology, 2020).

For the molecule `CC1(C)S[C@@H]2[C@H](NC(=O)[C@H](N)c3ccccc3)C(=O)N2[C@H]1C(=O)O` [Ampicillin sodium], the “MICs of different classes of antibiotics” value in experiment [1] worked out at 0.5 µg/mL; in experiment [4] it was 16 µg/mL; in [5], 64 µg/mL; in experiment [7], 32 µg/mL. Moreover, the Abscess area entry in [2] was “significantly reduced the abscess area and effectively suppressed its growth”. The “Bacterial CFU in abscess area” value in experiment [2] (vs PMAP-36PW: Myr-36PW P < 0.05, ampicillin sodium P < 0.01, n = 5) is “significant difference compared with that of PBS group (P < 0.01); also recorded: lower than that of PMAP-36PW group”. Moreover, in experiment [3], the “Lung histopathology (H&E)” value is “a complete alveolar structure, reduced blood stasis, and large reduction in inflammatory cells”. Also, the “Bacterial CFU in lung homogenate” value in experiment [3] (n = 5) is “decreased the P. aeruginosa GIM 1.551 CFU level compared with the PMAP-36PW group (P < 0.05)”. Besides, the “Pathological scores of the lung sections” value in experiment [3] (n = 5) was “lower scores than PMAP-36PW group (P < 0.05)”. In experiment [6], the Wound size entry was “significantly reduced”. In addition, in [6] (vs PBS group: PMAP-36PW P < 0.05, Myr-36PW and ampicillin sodium P < 0.01, n = 5), the “Bacterial CFU in the wound area” value is on record as “significantly reduced”.

With `CO/N=C(\C(=O)N[C@@H]1C(=O)N2C(C(=O)[O-])=C(CSC(=O)c3ccco3)CS[C@H]12)c1csc(N)n1.[Na+]` [Ceftiofur Sodium, Ceftiofur sodium], the “In vitro antibacterial activity (disk diffusion)” value in [8], in experiment [9], in experiment [10] and in experiment [11] was “+” each time. Further, the “MICs of different classes of antibiotics” value in [1] is less than 0.25 µg/mL; in experiment [4] it was 4 µg/mL; in [5], 32* μg/mL; in experiment [7], 64* μg/mL.
